Target: T1, Heme-containing sGC (Rattus norvegicus, UniProt P20595)
T1 construct: made in house; host or cells: Sf9 insect cells (baculovirus)
T1 sequence (P20595 1-619): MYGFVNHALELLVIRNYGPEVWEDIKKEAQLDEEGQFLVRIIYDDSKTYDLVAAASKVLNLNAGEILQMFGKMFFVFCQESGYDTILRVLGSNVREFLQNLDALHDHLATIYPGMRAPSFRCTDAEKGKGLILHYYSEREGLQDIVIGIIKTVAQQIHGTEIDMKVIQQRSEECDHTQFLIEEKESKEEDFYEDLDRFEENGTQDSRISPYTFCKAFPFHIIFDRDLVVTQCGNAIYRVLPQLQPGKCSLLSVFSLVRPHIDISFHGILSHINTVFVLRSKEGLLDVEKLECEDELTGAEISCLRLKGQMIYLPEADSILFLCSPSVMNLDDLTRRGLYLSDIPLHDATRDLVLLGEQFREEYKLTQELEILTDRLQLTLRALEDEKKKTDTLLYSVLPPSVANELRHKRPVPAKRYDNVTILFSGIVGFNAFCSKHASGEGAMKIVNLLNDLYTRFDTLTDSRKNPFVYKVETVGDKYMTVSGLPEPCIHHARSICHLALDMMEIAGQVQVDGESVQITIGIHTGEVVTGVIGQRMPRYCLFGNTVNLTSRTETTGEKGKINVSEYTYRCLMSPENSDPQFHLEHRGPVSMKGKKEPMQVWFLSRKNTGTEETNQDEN
T1 sequence (P19686 1-690 partner): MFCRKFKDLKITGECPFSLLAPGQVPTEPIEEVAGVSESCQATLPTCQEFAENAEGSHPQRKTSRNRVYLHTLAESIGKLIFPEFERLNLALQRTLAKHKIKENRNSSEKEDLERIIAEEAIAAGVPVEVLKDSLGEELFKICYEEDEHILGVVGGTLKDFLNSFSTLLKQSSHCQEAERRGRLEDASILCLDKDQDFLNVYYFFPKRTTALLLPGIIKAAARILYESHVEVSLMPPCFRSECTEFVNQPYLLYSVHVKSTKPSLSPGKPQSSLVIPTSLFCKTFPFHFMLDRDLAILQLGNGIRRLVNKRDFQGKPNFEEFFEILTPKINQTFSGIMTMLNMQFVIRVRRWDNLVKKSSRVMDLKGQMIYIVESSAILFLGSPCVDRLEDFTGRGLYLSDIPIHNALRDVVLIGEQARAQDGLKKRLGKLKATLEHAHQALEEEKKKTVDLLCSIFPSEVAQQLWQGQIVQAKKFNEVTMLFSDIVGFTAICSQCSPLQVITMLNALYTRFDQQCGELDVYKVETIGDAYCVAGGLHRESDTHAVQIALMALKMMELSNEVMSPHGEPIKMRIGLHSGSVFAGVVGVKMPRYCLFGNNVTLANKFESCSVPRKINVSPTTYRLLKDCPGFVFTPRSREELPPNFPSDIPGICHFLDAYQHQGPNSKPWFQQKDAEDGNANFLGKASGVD
Experiment: Stimulation of recombinant soluble guanylate cyclase (sGC) in vitro, heme-containing enzyme
Format: biochemical
Experimental: The investigations of the stimulation of recombinant soluble guanylate cyclase (sGC) […] heme-dependent sGC inhibitor 1H-1,2,4-oxadiazole-(4,3a)-quinoxalin-1-one (ODQ) were carried out according to the method described in detail in the following literature reference: M. Hoenicka, E. M. Becker, H. Apeler, T. Sirichoke, H. Schroeder, R. Gerzer and J.-P. Stasch: Purified soluble guanylyl cyclase expressed in a baculovirus/Sf9 system: stimulation by YC-1, nitric oxide, and carbon oxide. J. Mol. Med. 77 (1999): 14-23.
Activation of sGC by a test substance is stated as n-fold stimulation of basal activity.

## O=C(O)CCCCN(CCc1ccccc1OCc1ccc(-c2ccc(C(F)(F)F)cc2)cc1Cl)Cc1ccc(C(=O)O)cc1 [Example 6]
Ex. 6 0.001 μM
  Stimulation (n-fold), heme-containing sGC, basal: 2 n-fold
Ex. 6 0.001 μM + DEA/NO 0.001 μM
  Stimulation (n-fold), heme-containing sGC, + DEA/NO (0.001 μM): 6 n-fold
Ex. 6 0.001 μM + DEA/NO 0.01 μM
  Stimulation (n-fold), heme-containing sGC, + DEA/NO (0.01 μM): 32 n-fold
Ex. 6 0.001 μM + DEA/NO 0.1 μM
  Stimulation (n-fold), heme-containing sGC, + DEA/NO (0.1 μM): 127 n-fold
Ex. 6 0.001 μM + ODQ 10 μM
  Stimulation (n-fold), heme-containing sGC, + ODQ (10 μM): 35 n-fold
Ex. 6 0.01 μM
  Stimulation (n-fold), heme-containing sGC, basal: 9 n-fold
Ex. 6 0.01 μM + DEA/NO 0.001 μM
  Stimulation (n-fold), heme-containing sGC, + DEA/NO (0.001 μM): 13 n-fold
Ex. 6 0.01 μM + DEA/NO 0.01 μM
  Stimulation (n-fold), heme-containing sGC, + DEA/NO (0.01 μM): 39 n-fold
Ex. 6 0.01 μM + DEA/NO 0.1 μM
  Stimulation (n-fold), heme-containing sGC, + DEA/NO (0.1 μM): 134 n-fold
Ex. 6 0.01 μM + ODQ 10 μM
  Stimulation (n-fold), heme-containing sGC, + ODQ (10 μM): 95 n-fold
Ex. 6 0.1 μM
  Stimulation (n-fold), heme-containing sGC, basal: 18 n-fold
Ex. 6 0.1 μM + DEA/NO 0.001 μM
  Stimulation (n-fold), heme-containing sGC, + DEA/NO (0.001 μM): 25 n-fold
Ex. 6 0.1 μM + DEA/NO 0.01 μM
  Stimulation (n-fold), heme-containing sGC, + DEA/NO (0.01 μM): 52 n-fold
Ex. 6 0.1 μM + DEA/NO 0.1 μM
  Stimulation (n-fold), heme-containing sGC, + DEA/NO (0.1 μM): 157 n-fold
Ex. 6 0.1 μM + ODQ 10 μM
  Stimulation (n-fold), heme-containing sGC, + ODQ (10 μM): 147 n-fold
Ex. 6 1.0 μM
  Stimulation (n-fold), heme-containing sGC, basal: 23 n-fold
Ex. 6 1.0 μM + DEA/NO 0.001 μM
  Stimulation (n-fold), heme-containing sGC, + DEA/NO (0.001 μM): 30 n-fold
Ex. 6 1.0 μM + DEA/NO 0.01 μM
  Stimulation (n-fold), heme-containing sGC, + DEA/NO (0.01 μM): 53 n-fold
Ex. 6 1.0 μM + DEA/NO 0.1 μM
  Stimulation (n-fold), heme-containing sGC, + DEA/NO (0.1 μM): 151 n-fold
Ex. 6 1.0 μM + ODQ 10 μM
  Stimulation (n-fold), heme-containing sGC, + ODQ (10 μM): 150 n-fold
Ex. 6 10 μM
  Stimulation (n-fold), heme-containing sGC, basal: 25 n-fold
Ex. 6 10 μM + DEA/NO 0.001 μM
  Stimulation (n-fold), heme-containing sGC, + DEA/NO (0.001 μM): 30 n-fold
Ex. 6 10 μM + DEA/NO 0.01 μM
  Stimulation (n-fold), heme-containing sGC, + DEA/NO (0.01 μM): 67 n-fold
Ex. 6 10 μM + DEA/NO 0.1 μM
  Stimulation (n-fold), heme-containing sGC, + DEA/NO (0.1 μM): 174 n-fold
Ex. 6 10 μM + ODQ 10 μM
  Stimulation (n-fold), heme-containing sGC, + ODQ (10 μM): 159 n-fold

Reference: US6939989B2, “Side-chain halogenated amino dicarboxylic acid derivatives as medicaments for treating cardiovascular diseases” (Bayer Aktiengesellschaft, priority 2001, dated 2005)
